Laboratory results taken from PMC12312563, “Structures of Listeria monocytogenes MenD in ThDP-bound and in-crystallo captured intermediate I-bound forms” (Acta Crystallographica Section F: Structural Biology …, 2025).

Key:
[1] = target: T1, LmoMenD (2-succinyl-5-enolpyruvyl-6-hydroxy-3-cyclohexene-1-carboxylate synthase, SEPHCHC synthase) (Listeria monocytogenes, UniProt A0A0H3GD77); parameters: gene menD
T1 sequence (A0A0H3GD77 1-580): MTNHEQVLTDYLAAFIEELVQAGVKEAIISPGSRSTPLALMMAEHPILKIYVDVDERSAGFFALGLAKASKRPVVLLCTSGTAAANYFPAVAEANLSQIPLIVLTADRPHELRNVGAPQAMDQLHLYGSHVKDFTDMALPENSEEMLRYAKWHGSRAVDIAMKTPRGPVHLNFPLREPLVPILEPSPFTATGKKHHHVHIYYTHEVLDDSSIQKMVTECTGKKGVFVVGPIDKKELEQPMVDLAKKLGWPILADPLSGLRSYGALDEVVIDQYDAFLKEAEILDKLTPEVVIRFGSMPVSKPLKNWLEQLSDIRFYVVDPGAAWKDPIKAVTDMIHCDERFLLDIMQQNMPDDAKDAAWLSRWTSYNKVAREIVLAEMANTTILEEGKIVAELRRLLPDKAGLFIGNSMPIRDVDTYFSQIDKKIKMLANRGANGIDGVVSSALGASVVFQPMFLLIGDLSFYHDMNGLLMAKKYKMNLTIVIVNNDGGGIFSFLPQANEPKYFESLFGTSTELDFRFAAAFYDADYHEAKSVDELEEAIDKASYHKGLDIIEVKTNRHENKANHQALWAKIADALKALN

[2] = target: T1, LmoMenD (2-succinyl-5-enolpyruvyl-6-hydroxy-3-cyclohexene-1-carboxylate synthase, SEPHCHC synthase); assay: UV/Vis assay of isochorismate consumption; […] decrease of activity at […]; format: biochemical; parameters: gene menD; full-length LmoMenD, strain 10403s, tag removed by TEV cleavage
[3] = target: the molecule itself; assay: crystal structure; LmoMenD with ThDP and Mg2+ (PDB 9e9b) or with intermediate I after a 2-oxoglutarate soak (PDB 9mnn); space group P6(4)22, one molecule in the asymmetric unit, tetramer by crystallographic symmetry; PISA analysis of assemblies

O=C(O)CCC(=O)C(=O)O [2-oxoglutarate]
UV/Vis enzyme kinetics (Km, value in supplement); turned over in crystallo to in [1]: the Km values for ThDP, 2-oxoglutarate and isochorismate and kcat were determined

O=C(O)c1cc(O)c2ccccc2c1O [DHNA, 1,4-dihydroxy-2-naphthoic acid]
inhibition at 12.5 µM [2]: 34%

B1: Listeria monocytogenes MenD (2-succinyl-5-enolpyruvyl-6-hydroxy-3-cyclohexene-1-carboxylate (SEPHCHC) synthase) (enzyme, Listeria monocytogenes (strain 10403s))
chain: GAMVTNHEQVLTDYLAAFIEELVQAGVKEAIISPGSRSTPLALMMAEHPILKIYVDVDERSAGFFALGLAKASKRPVVLLCTSGTAAANYFPAVAEANLSQIPLIVLTADRPHELRNVGAPQAMDQLHLYGSHVKDFTDMALPENSEEMLRYAKWHGSRAVDIAMKTPRGPVHLNFPLREPLVPILEPSPFTATGKKHHHVHIYYTHEVLDDSSIQKMVTECTGKKGVFVVGPIDKKELEQPMVDLAKKLGWPILADPLSGLRSYGALDEVVIDQYDAFLKEAEILDKLTPEVVIRFGSMPVSKPLKNWLEQLSDIRFYVVDPGAAWKDPIKAVTDMIHCDERFLLDIMQQNMPDDAKDAAWLSRWTSYNKVAREIVLAEMANTTILEEGKIVAELRRLLPDKAGLFIGNSMPIRDVDTYFSQIDKKIKMLANRGANGIDGVVSSALGASVVFQPMFLLIGDLSFYHDMNGLLMAKKYKMNLTIVIVNNDGGGIFSFLPQANEPKYFESLFGTSTELDFRFAAAFYDADYHEAKSVDELEEAIDKASYHKGLDIIEVKTNRHENKANHQALWAKIADALKALN
notes: MenD, Listeria monocytogenes strain 10403s, menD gene cloned from genomic DNA with printed primers that run from the start to the stop codon; Untagged protein after rTEV cleavage; The forward primer reads ATG GTG ACA..., so the MV at the start may hold one residue more than the natural protein (surmised from the residue numbering); also called LmoMenD; source: E. coli BL21 (DE3), purified …
stoichiometry N [3]: 4
